Experimental data from PMC4982760, “Small-molecule inhibitors identify the RAD52-ssDNA interaction as critical for recovery from replication stress and for survival of BRCA2 deficient cells” (eLife, 2016).

Assays:
[1] = tested on: GM01604 cells (hTERT-immortalized wild-type human fibroblasts); experiment: Neutral comet assay, MUS81/EME1/RAD52-dependent DSB formation; assay type: cell-based; details: GM01604, HU + UCN01
From the text: In human cells, RAD52 may perform both limited recombination-mediator function in the RAD51-dependent pathway ([Lok and Powell, 2012]; [Benson et al., 1998]; [Feng et al., 2011]) as well as additional RAD51-independent roles ([Lok and Powell, 2012]; [Murfuni et al., 2013]; [McIlwraith and West, 2008]). One of these HR independent roles of RAD52 involves stimulation of MUS81/EME1-dependent DSB formation at replication forks stalled by hydroxyurea (HU) treatment in the absence of cellular checkpoints ([Murfuni et al., 2013]). Since the most likely targets of these MUS81/EME1/RAD52-dependent DSBs are the DNA structures produced by RAD52 ([Murfuni et al., 2013]), we expected this activity to depend on the RAD52-ssDNA interaction (Figure 5a). To confirm this, we assessed DSB formation in checkpoint deficient cells using the neutral comet assay. These assays monitor MUS81/EME1/RAD52-dependent DSB formation upon induction of replication stress by HU treatment in primary fibroblasts immortalized by hTERT expression and treated with UNC01 to inhibit CHK1 kinase (Figure 5b). […] Importantly, these inhibitors recapitulate RAD52 depletion by inhibiting RAD52-MUS81-dependent DSBs at stalled replication forks (Figure 5a–b). […] It also confirms our previous supposition that the target of MUS81/EME1-mediated cleavage under these conditions are indeed the structures annealed by RAD52. […]
To induce RAD52-MUS81-dependent cleavage at arrested replication forks ([Murfuni et al., 2013]), hTERT-immortalized wild-type human fibroblasts (GM01604) were treated with 2 mM HU and 300 nM UCN01 for 6h, in the presence and absence of varying concentrations of ‘1’ or ‘6’. […] Slides were analyzed by a computerized image analysis system (Comet IV, Perceptive UK). To assess the quantity of DNA damage, computer-generated tail moment values (tail length x fraction of total DNA in the tail) were used. […] A minimum of 100 cells were analyzed for each compound concentration point.

[2] = biological target: T1, interaction between RAD52 and RPA proteins (Homo sapiens, UniProt P43351); experiment: Ni-NTA pull-down of the RAD52-RPA interaction; assay type: binding; details: 3 μM RAD52, 3 μM RPA, 3 μM compound
T1 construct: made in house
T1 sequence (P43351 whole entry): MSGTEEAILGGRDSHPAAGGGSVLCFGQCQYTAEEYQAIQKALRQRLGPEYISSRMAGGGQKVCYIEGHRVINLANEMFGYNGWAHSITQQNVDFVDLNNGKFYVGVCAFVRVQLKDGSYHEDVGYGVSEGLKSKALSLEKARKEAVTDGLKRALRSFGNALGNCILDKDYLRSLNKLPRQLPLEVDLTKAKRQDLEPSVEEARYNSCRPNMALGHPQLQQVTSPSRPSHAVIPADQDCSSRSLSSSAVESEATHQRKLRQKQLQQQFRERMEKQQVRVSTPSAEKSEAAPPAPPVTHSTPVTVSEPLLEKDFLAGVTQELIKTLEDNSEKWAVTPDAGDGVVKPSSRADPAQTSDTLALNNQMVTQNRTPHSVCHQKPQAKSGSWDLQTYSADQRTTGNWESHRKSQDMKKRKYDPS
T1 sequence (P27694 whole entry partner): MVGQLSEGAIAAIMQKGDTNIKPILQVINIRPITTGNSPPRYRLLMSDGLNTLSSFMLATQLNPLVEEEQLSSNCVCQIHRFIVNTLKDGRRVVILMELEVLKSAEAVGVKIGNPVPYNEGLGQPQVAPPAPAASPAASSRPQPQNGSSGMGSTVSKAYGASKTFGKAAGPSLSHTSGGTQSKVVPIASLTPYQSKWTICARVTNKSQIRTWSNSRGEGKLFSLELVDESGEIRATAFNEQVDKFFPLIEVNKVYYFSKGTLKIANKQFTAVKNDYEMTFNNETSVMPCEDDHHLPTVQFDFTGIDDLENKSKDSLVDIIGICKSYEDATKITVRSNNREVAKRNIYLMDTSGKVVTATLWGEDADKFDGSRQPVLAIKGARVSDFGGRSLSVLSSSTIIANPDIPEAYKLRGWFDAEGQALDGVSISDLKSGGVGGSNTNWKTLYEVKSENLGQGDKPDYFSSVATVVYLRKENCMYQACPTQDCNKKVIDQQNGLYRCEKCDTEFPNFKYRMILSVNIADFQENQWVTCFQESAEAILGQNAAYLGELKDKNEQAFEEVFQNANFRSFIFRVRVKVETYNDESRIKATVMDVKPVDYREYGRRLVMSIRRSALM
T1 sequence (P15927 whole entry partner): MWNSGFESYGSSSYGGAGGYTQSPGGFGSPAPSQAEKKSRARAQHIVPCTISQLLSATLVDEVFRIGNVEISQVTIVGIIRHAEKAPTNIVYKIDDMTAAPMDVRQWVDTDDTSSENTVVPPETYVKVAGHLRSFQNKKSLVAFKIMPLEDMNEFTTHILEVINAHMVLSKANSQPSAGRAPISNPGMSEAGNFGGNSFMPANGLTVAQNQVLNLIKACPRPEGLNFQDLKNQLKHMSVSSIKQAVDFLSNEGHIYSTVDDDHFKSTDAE
T1 sequence (P35244 whole entry partner): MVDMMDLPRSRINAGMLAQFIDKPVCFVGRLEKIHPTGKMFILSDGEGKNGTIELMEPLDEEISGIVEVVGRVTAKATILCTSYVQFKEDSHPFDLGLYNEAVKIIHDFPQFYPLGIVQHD

[3] = biological target: T2, RPA (Homo sapiens, UniProt P15927+P27694+P35244); experiment: WaterLOGSY NMR binding to RPA; details: 20-40 μM compound, 3.3 μM RPA
T2 construct: made in house
T2 sequence (P27694 whole entry): as the sequence (P27694 whole entry partner) above
T2 sequence (P15927 whole entry): as the sequence (P15927 whole entry partner) above
T2 sequence (P35244 whole entry): as the sequence (P35244 whole entry partner) above
From the text: To confirm that the selected compounds bind RAD52, we employed water-ligand observation with gradient spectroscopy (WaterLOGSY), an NMR technique, which is based on transfer of magnetization from bulk water to the protein-bound compound of interest ([Dalvit et al., 2001], [2000]). In WaterLOGSY spectrum, if a compound binds to a protein, the compound will receive negative nuclear Overhauser effects (NOEs) due to the slow tumbling of the protein-compound complex, leading to a positive WaterLOGSY peak. […] Similarly, the binding of ‘6’to RAD52 is evident from the positive WaterLOGSY peaks that are clearly detected for this compound (Figure 3a).
Compound binding to RAD52 and RPA proteins was analyzed using water-ligand observation with gradient spectroscopy (WaterLOGSY) NMR experiments ([Dalvit et al., 2001], [2000]). The WaterLOGSY spectra of compounds in the presence of RAD52 or RPA were acquired using a water NOE mixing time of 1 s and a T2 relaxation filter of 50 ms just before data acquisition to suppress the broad signals derived from protein. The protein buffer used in the experiments contains 10 mM Tris-d11, 75 mM KCl, 0.25 mM EDTA, pH 7.5, and 10% D20. All NMR data were acquired on a Bruker Avance II 800 MHz NMR spectrometer equipped with a sensitive cryoprobe and recorded at 25°C. The ^1H chemical shifts were referenced to 2,2-dimethyl-2-silapentane-5-sulfonate (DSS). NMR spectra were processed using NMR Pipe ([Delaglio et al., 1995]) and analysed using NMR View ([Johnson and Blevins, 1994]).

[4] = tested on: GM01604 cells; experiment: LIVE/DEAD cell viability assay; assay type: cell-based, human; details: 1 µM compound
Procedure: GM01604 cells were transfected with siRNAs directed against GFP (Ctrl), or against MUS81 (Qiagen), BRCA2 (Sigma-Aldrich), and RAD52 (Qiagen) 48 hr prior to addition of 1 µM ‘1’. Where indicated, the conditions of pathological replication were induced by treating cells with 2 mM HU and 300 nM UCN01 for 6 hr or by 18 hr treatment with 2 mM HU, in the presence or absence of ‘1’. Viability was evaluated by the LIVE/DEAD assay (Sigma-Aldrich) according to the manufacturer’s instructions. Cell number was counted in randomly chosen fields and expressed as percent of dead cells (number of red nuclear stained cells divided by the total cell number) corrected for the cell loss observed in the population. For each time point, at least 200 cells were counted.

Oc1cc(O)c2c(c1)O[C@H](c1cc(O)c(O)c(O)c1)[C@H](O)C2 [Compound 1, (−)−Epigallocatechin] was tested, and the “concentration sufficient for same level of DSB reduction as siRNA treatment” value [1] was 1 µM, the “concentration with same reduction in DSBs as siRNA depletion of RAD52” value [1] was 500 nM and the “effect on the RAD52-RPA interaction” value [2] was “neither ‘1’ nor ‘6’ interfered with the interaction between the two proteins”. The “binding to RPA (WaterLOGSY)” value [3] was “neither binds to RPA”, the cell death ([4]; BRCA2-depleted GM01604, after replication stress (HU + UCN01)) was ~ 80% and the dead cells ([4]; MUS81-depleted GM01604, checkpoint-deficient, HU treated) was about 60%. For the same compound, the dead cells ([4]; MUS81-depleted GM01604, untreated) was “approximately 40%”.
